Our source for the EC50, fold change (FC) and IC50 values is ChEMBL document CHEMBL1157033, “Developing a complete pharmacology for AMPA receptors: a perspective on subtype-selective ligands” (Bioorg Med Chem, 2010).

Assay [1] has as its target T1, Glutamate receptor 1 (Homo sapiens, UniProt P42261). In words: Activity at human recombinant GluA1 receptor flip isoform expressed in HEK293 cells assessed as effect on glutamate-induced calcium flux by Fluo-4/AM staining-based fluorescence assay. The assay is classed as cell-based. (In general: Calcium flux is commonly read through the fluorescence of an indicator in the cells.)

Assay [2] deals with T1, Glutamate receptor 1. As to the kind of experiment: Activity at recombinant GluA1 receptor flop isoform expressed in Xenopus oocytes assessed as potentiation of glutamate-induced current at 100 uM relative to control. The format is cell-based. Conditions: Oocyte.
Assay [3] deals with T1, Glutamate receptor 1. In words: Agonist activity at recombinant GluA1 receptor flip isoform expressed in Xenopus oocytes. The assay is classed as functional, cell-based, Oocyte.
Assay [4] has as its target T2, Glutamate receptor AMPA 2/3 (Homo sapiens) (UniProt P42263+P42262). In words: Activity at recombinant GluA2 receptor flip/GluA3 receptor flop isoform expressed in Xenopus oocytes assessed as potentiation of 10 uM AMPA-induced current at 100 uM relative to control. The assay is classed as cell-based. Conditions: Oocyte.
In assay [5] the target is T3, Glutamate receptor 3 (Homo sapiens, UniProt P42263). As to the kind of experiment: Activity at recombinant GluA3 receptor flip isoform expressed in Xenopus oocytes assessed as potentiation of 10 uM AMPA-induced current at 100 uM relative to control. The format is cell-based. Conditions: Oocyte.
T3 sequence (P42263 whole entry, canonical isoform): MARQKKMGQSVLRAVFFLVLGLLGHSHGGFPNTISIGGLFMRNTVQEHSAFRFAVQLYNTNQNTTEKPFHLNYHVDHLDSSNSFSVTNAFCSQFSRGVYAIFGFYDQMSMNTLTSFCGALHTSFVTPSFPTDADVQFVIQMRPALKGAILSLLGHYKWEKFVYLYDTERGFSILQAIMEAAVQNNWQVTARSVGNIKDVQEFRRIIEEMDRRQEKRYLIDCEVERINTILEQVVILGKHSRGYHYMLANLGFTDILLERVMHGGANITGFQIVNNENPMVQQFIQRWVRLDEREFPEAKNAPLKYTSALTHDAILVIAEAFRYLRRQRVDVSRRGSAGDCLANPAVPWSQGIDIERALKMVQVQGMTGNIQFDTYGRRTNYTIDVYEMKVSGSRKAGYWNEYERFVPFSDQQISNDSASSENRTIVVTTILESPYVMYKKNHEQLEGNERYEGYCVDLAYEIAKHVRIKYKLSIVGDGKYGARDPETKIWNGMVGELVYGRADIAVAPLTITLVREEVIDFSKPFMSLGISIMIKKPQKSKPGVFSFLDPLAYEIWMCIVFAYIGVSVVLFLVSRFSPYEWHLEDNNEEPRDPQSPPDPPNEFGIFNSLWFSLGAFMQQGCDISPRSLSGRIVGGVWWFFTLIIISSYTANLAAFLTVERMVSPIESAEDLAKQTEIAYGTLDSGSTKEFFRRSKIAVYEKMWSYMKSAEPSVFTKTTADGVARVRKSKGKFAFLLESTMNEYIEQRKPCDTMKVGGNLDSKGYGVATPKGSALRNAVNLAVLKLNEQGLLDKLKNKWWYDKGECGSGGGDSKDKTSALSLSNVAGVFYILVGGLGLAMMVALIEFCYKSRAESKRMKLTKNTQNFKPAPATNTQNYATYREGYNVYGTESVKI
Assay [6] addresses T3, Glutamate receptor 3. In words: Activity at recombinant GluA3 receptor flop isoform expressed in Xenopus oocytes assessed as potentiation of 10 uM AMPA-induced current at 100 uM relative to control. The assay is classed as cell-based. Conditions: Oocyte.
Assay [7] can be described thus: Activity at recombinant GluA2A4 receptor flop isoform expressed in Xenopus oocytes assessed as effect on 300 uM glutamate-induced current. The format is cell-based. To be noted: Oocyte.
Assay [8] in a line: Activity at recombinant GluA4 receptor flip isoform expressed in Xenopus oocytes assessed as effect on 300 uM glutamate-induced current. To be noted: Oocyte. The format is cell-based.
A short description of assay [9]: Activity at recombinant GluA2A4 receptor flip isoform expressed in Xenopus oocytes assessed as effect on 300 uM glutamate-induced current. Conditions: Oocyte. The assay is classed as cell-based.
For assay [10], the target named is T2, Glutamate receptor AMPA 2/3 (Homo sapiens). As to the kind of experiment: Activity at recombinant GluA2 receptor flop/GluA3 receptor flip isoform expressed in Xenopus oocytes assessed as potentiation of 10 uM AMPA-induced current at 100 uM relative to control. To be noted: Oocyte. The format is cell-based.
The target of assay [11] is T4, Glutamate receptor AMPA 1/2 (Homo sapiens, UniProt P42261+P42262). In words: Activity at recombinant GluA1A2 receptor flip isoform expressed in Xenopus oocytes assessed as effect on 300 uM glutamate-induced current. The format is cell-based, Oocyte.
T4 sequence (P42262 whole entry, canonical isoform): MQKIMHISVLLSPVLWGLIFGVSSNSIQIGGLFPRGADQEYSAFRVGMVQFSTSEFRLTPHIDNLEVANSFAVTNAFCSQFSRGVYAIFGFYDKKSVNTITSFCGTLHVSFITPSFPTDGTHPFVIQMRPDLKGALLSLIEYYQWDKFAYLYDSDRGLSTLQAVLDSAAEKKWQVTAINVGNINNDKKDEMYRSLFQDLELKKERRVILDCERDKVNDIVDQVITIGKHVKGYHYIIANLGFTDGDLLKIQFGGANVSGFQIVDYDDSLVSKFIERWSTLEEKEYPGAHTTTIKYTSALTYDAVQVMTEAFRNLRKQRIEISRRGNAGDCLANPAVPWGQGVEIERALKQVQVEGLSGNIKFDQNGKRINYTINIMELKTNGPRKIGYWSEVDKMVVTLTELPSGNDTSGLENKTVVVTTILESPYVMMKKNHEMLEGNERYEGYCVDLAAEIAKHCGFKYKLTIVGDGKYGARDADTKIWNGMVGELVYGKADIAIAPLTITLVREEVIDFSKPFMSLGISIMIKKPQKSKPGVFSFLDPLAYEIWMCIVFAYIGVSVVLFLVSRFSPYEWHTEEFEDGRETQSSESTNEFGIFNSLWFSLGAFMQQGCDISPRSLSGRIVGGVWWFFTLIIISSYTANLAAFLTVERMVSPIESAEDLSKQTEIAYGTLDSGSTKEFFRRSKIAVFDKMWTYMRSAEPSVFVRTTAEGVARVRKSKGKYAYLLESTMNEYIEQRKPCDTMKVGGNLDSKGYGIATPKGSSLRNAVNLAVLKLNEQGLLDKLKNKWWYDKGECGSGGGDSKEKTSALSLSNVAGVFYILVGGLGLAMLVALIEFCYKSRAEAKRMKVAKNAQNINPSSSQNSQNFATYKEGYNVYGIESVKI
T4 sequence (P42261 whole entry, canonical isoform): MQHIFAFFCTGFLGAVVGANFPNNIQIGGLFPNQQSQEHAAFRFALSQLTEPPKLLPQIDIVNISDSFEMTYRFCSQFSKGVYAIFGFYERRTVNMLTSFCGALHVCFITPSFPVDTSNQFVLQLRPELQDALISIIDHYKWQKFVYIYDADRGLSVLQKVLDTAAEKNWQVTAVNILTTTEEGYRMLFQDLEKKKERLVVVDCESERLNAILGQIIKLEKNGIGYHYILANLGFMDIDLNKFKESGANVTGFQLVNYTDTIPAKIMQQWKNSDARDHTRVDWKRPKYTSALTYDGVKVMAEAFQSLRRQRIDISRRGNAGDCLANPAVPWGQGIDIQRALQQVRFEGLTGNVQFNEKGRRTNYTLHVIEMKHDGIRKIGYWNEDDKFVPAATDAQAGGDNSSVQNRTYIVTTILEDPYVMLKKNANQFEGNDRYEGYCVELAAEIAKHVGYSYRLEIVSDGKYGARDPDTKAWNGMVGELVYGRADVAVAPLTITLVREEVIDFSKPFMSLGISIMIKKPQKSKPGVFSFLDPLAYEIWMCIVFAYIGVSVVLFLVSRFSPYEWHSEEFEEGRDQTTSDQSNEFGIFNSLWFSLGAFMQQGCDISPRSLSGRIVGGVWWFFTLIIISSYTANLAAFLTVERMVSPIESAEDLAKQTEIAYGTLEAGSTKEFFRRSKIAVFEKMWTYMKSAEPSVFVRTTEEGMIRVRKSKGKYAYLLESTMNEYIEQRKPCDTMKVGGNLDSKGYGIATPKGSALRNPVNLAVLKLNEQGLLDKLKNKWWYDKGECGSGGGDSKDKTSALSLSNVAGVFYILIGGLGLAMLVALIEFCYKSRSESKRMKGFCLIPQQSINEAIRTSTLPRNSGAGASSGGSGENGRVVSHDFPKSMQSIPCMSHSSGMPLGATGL
For assay [12], the target named is T2, Glutamate receptor AMPA 2/3 (Homo sapiens). In words: Activity at recombinant GluA2A3 receptor flop isoform expressed in Xenopus oocytes assessed as potentiation of 10 uM AMPA-induced current at 100 uM relative to control. The assay is classed as cell-based. Conditions: Oocyte.
Assay [13] addresses T1, Glutamate receptor 1. In words: Activity at recombinant GluA1 receptor flop isoform expressed in Xenopus oocytes co-expressing gamma2-TARP assessed as effect on 10 uM glutamate-induced current by voltage-clamp electrophysiological assay. The assay is classed as cell-based, Oocyte.
The target in assay [14] is T3, Glutamate receptor 3. As to the kind of experiment: Activity at human recombinant GluA3 receptor flip isoform expressed in HEK293 cells assessed as effect on glutamate-induced calcium flux by Fluo-4/AM staining-based fluorescence assay. The assay is classed as cell-based.
The target of assay [15] is Glutamate receptor 4 (Rattus norvegicus) (UniProt P19493). As to the kind of experiment: Activity at recombinant GluA4 receptor flip isoform expressed in Xenopus oocytes assessed as potentiation of glutamate-induced current at 100 uM relative to control. Conditions: Oocyte.
Assay [16] concerns the target T5, Glutamate receptor 2 (Homo sapiens, UniProt P42262). In words: Activity at human recombinant GluA2 receptor flop isoform expressed in HEK293 cells assessed as effect on glutamate-induced calcium flux by Fluo-4/AM staining-based fluorescence assay. The assay is classed as cell-based.
The target of assay [17] is T6, Glutamate receptor AMPA 1/2 (Homo sapiens) (UniProt P42262+P42261). In words: Activity at recombinant GluA1 receptor flop/GluA2 receptor flip isoform expressed in Xenopus oocytes assessed as potentiation of 10 uM AMPA-induced current at 100 uM relative to control. Conditions: Oocyte. The assay is classed as cell-based.
For assay [18], the target named is T1, Glutamate receptor 1. As to the kind of experiment: Activity at recombinant GluA1 receptor flip isoform expressed in Xenopus oocytes assessed as potentiation of 10 uM AMPA-induced current at 100 uM relative to control. The format is cell-based. Conditions: Oocyte.
Assay [19] addresses T6, Glutamate receptor AMPA 1/2 (Homo sapiens). As to the kind of experiment: Activity at recombinant GluA1 receptor flip/GluA2 receptor flop isoform expressed in Xenopus oocytes assessed as potentiation of 10 uM AMPA-induced current at 100 uM relative to control. The assay is classed as cell-based. Conditions: Oocyte.
Assay [20] deals with T5, Glutamate receptor 2. As to the kind of experiment: Activity at human recombinant GluA2 receptor flip isoform expressed in HEK293 cells assessed as effect on glutamate-induced calcium flux by Fluo-4/AM staining-based fluorescence assay. The assay is classed as cell-based.
In assay [21] the target is T1, Glutamate receptor 1. In words: Activity at recombinant GluA1 receptor flip isoform expressed in Xenopus oocytes co-expressing gamma2-TARP assessed as effect on 10 uM glutamate-induced current by voltage-clamp electrophysiological assay. The assay is classed as cell-based, Oocyte.
For assay [22], the target named is T1, Glutamate receptor 1. In words: Activity at recombinant GluA1 receptor flip isoform expressed in Xenopus oocytes assessed as potentiation of glutamate-induced current at 100 uM relative to control. The assay is classed as cell-based. Conditions: Oocyte.
Assay [23] addresses T4, Glutamate receptor AMPA 1/2. In words: Activity at recombinant GluA1A2 receptor flop isoform expressed in Xenopus oocytes assessed as effect on 300 uM glutamate-induced current. The assay is classed as cell-based, Oocyte.
Assay [24] concerns the target T6, Glutamate receptor AMPA 1/2 (Homo sapiens). As to the kind of experiment: Activity at recombinant GluA1A2 receptor flop isoform expressed in Xenopus oocytes assessed as potentiation of glutamate-induced current at 100 uM relative to control. The assay is classed as cell-based. Conditions: Oocyte.
Assay [25] deals with T3, Glutamate receptor 3. In words: Activity at recombinant GluA3 receptor flip isoform expressed in Xenopus oocytes assessed as potentiation of glutamate-induced current at 100 uM relative to control. The format is cell-based. Conditions: Oocyte.
Assay [26] concerns the target T6, Glutamate receptor AMPA 1/2 (Homo sapiens). As to the kind of experiment: Activity at recombinant GluA1A2 receptor flip isoform expressed in Xenopus oocytes assessed as potentiation of glutamate-induced current at 100 uM relative to control. The format is cell-based. To be noted: Oocyte.
The target of assay [27] is T1, Glutamate receptor 1. As to the kind of experiment: Activity at recombinant GluA1 receptor flop isoform expressed in Xenopus oocytes assessed as potentiation of 10 uM AMPA-induced current at 100 uM relative to control. The assay is classed as cell-based. Conditions: Oocyte.
Assay [28] deals with T6, Glutamate receptor AMPA 1/2 (Homo sapiens). In words: Activity at recombinant GluA1A2 receptor flop isoform expressed in Xenopus oocytes assessed as potentiation of 10 uM AMPA-induced current at 100 uM relative to control. The assay is classed as cell-based. To be noted: Oocyte.
Assay [29] can be described thus: Activity at human recombinant GluA4 receptor flip isoform expressed in HEK293 cells assessed as effect on glutamate-induced calcium flux by Fluo-4/AM staining-based fluorescence assay. The format is cell-based.
For assay [30], the target named is Glutamate receptor AMPA 1/2 (Rattus norvegicus, UniProt P19490+P19491). The format is cell-based, Oocyte.
Chain of Glutamate receptor AMPA 1/2 (Rattus norvegicus, UniProt P19490+P19491) (P19491 whole entry): as the sequence (P42262 whole entry, canonical isoform) above, with M191T, T291A, R764G, A852P counted along it
Chain of Glutamate receptor AMPA 1/2 (Rattus norvegicus, UniProt P19490+P19491) (P19490 whole entry): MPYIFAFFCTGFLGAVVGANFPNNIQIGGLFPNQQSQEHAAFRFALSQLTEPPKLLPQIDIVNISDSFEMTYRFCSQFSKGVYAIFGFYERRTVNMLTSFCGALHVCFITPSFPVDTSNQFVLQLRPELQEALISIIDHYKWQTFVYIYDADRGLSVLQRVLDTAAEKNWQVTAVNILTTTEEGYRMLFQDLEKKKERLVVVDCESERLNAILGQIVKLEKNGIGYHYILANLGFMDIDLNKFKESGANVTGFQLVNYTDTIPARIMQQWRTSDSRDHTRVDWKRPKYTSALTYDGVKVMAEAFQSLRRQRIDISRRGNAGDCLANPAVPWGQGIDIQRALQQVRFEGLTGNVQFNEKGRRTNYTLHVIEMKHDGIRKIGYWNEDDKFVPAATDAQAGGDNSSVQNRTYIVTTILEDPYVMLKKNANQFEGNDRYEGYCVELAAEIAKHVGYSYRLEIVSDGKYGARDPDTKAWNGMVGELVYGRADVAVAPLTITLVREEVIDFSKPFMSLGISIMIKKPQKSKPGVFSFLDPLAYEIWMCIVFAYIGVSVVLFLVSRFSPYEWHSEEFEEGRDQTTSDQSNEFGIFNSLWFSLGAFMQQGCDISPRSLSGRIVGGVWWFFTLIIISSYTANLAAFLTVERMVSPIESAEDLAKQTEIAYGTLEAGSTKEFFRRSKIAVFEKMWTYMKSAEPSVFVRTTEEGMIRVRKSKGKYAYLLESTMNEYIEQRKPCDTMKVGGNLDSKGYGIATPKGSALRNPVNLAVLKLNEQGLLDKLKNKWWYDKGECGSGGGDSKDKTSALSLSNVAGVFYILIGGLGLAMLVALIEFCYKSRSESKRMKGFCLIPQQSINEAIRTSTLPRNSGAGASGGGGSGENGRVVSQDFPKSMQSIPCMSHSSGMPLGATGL
Another assay has as its target Glutamate receptor 4 (Homo sapiens, UniProt P48058). In words: Inhibition of GluA4 receptor expressed in Xenopus oocytes assessed as inhibition of […] uM kainate-induced current by patch clamp electrophysiological assay. The format is cell-based, Oocyte. (The patch-clamp technique gives a direct electrical read-out from membranes.)
The target in assay [31] is Glutamate receptor 1 (Rattus norvegicus, UniProt P19490). The assay is classed as cell-based, Oocyte.
Chain of Glutamate receptor 1 (Rattus norvegicus, UniProt P19490) (P19490 whole entry, canonical isoform): as the sequence (P19490 whole entry) above
Assay [32] deals with T1, Glutamate receptor 1. In words: Activity at recombinant GluA1 receptor flop isoform expressed in Xenopus oocytes assessed as effect of 100 uM kainate-induced current by patch clamp electrophysiological assay. The format is cell-based, Oocyte.
Assay [33] concerns the target T1, Glutamate receptor 1. The assay is classed as cell-based, Oocyte.
For assay [34], the target named is T4, Glutamate receptor AMPA 1/2. The assay is classed as cell-based, Oocyte.
The target of assay [35] is T1, Glutamate receptor 1. The format is cell-based, Oocyte. This is another data set of the same source.
Assay [36] concerns the target T3, Glutamate receptor 3. As to the kind of experiment: Inhibition of GluA3 receptor expressed in Xenopus oocytes assessed as inhibition of […] uM kainate-induced current by patch clamp electrophysiological assay. The format is cell-based, Oocyte.
For assay [37], the target named is T3, Glutamate receptor 3. As to the kind of experiment: Inhibition of recombinant GluA3 receptor flip isoform expressed in Xenopus oocytes assessed as inhibition of […] uM kainate-induced current by patch clamp electrophysiological assay. The assay is classed as cell-based, Oocyte.
Assay [38] in a line: Inhibition of recombinant GluA4 receptor flip isoform expressed in Xenopus oocytes assessed as inhibition of […] uM kainate-induced current by patch clamp electrophysiological assay. The format is cell-based. To be noted: Oocyte.
The target of assay [39] is T4, Glutamate receptor AMPA 1/2. As to the kind of experiment: Activity at recombinant GluA1A2 receptor flop isoform expressed in Xenopus oocytes assessed as effect of 100 uM kainate-induced current by patch clamp electrophysiological assay. The format is cell-based, Oocyte.
The target of assay [40] is T1, Glutamate receptor 1. In words: Activity at recombinant GluA1 receptor flip isoform expressed in Xenopus oocytes co-expressing gamma2-TARP assessed as effect on glutamate/trichloromethiazide-induced current. The assay is classed as cell-based, Oocyte.
Assay [41] has as its target T5, Glutamate receptor 2. As to the kind of experiment: Activity at recombinant GluA2 receptor flip isoform expressed in Xenopus oocytes co-expressing gamma2-TARP assessed as effect on glutamate/trichloromethiazide-induced current. The format is cell-based, Oocyte.

The structures appear in SMILES notation.

T5 sequence (P42262 whole entry, canonical isoform): as the sequence (P42262 whole entry, canonical isoform) above
T1 sequence (P42261 whole entry, canonical isoform): as the sequence (P42261 whole entry, canonical isoform) above
Chain of Glutamate receptor 4 (P48058 whole entry): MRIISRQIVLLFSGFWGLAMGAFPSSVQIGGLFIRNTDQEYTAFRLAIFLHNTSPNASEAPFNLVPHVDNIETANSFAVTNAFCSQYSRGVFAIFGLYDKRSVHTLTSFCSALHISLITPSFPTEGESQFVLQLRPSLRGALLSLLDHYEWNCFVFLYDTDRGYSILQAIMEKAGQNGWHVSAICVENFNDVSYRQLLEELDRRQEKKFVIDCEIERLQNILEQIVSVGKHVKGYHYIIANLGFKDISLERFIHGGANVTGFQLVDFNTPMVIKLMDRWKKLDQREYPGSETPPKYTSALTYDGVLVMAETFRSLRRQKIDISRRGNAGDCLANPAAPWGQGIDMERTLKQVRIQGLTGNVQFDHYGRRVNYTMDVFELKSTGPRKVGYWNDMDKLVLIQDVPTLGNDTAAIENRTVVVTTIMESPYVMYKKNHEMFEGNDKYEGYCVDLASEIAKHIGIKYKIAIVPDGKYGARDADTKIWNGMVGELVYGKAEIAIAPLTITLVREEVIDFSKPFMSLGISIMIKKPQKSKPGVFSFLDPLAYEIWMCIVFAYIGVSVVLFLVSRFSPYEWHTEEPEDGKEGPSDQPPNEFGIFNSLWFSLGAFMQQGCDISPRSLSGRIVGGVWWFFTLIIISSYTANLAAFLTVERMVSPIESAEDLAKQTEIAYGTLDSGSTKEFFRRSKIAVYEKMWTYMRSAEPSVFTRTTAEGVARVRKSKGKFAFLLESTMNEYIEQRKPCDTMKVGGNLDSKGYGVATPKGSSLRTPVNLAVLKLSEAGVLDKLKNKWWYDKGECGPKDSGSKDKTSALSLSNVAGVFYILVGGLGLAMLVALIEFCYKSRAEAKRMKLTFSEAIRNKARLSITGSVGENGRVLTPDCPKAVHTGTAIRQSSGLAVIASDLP

Turning to `NS(=O)(=O)c1cc2c(cc1Cl)NC(C1CC3C=CC1C3)NS2(=O)=O` (configuration not stated) [CYCLOTHIAZIDE], the EC50 – broadly, the concentration at which the effect is half-maximal – on Glutamate receptor 1 [1] is 19.8 µM; at Glutamate receptor 1 [3], 1 µM; in assay [7], more than 91 µM; in [8], 5.9 µM; in [9], 5 µM; in assay [11], 6.6 µM. In addition, the 50% effective concentration (EC50) at Glutamate receptor 1 [13] is 10 µM; on Glutamate receptor 3 [14], 13.7 µM; at Glutamate receptor 2 [16] it was more than 100 µM; on Glutamate receptor 2 [20] it was 2.24 µM; on Glutamate receptor 1 [21], 2 µM; in assay [23], more than 76 µM. Moreover, the EC50 in [29] came to 3.91 µM. Moreover, the fold change (FC) came to 22 at Glutamate receptor 1 [2]; 7.18 in [4]; 3.59 on Glutamate receptor 3 [5]; 5.59 at Glutamate receptor 3 [6]; 6.83 in [10]; 10.5 in assay [12]. Moreover, the fold change (FC) stood at 171 in assay [15]; 11.6 in assay [17]; 5.31 on Glutamate receptor 1 [18]; 19.9 in assay [19]; 103 at Glutamate receptor 1 [22]; 61 in assay [24]. In addition, the fold change (FC) at Glutamate receptor 3 [25] is 69; in [26] it was 137; on Glutamate receptor 1 [27], 1.34; in [28] it was 3.53.

Turning to `N=C(N)NCCC[C@H](N)C(=O)NCCCNCCCNCCCCCNC(=O)[C@H](CC(N)=O)NC(=O)Cc1ccc(O)cc1O`, the half-inhibitory concentration (IC50) – broadly, the concentration at which inhibition is half-maximal – in assay [30] was determined as 300 µM; at Glutamate receptor 4, 0.43 µM; on Glutamate receptor 1 [31], 3.4 µM; at Glutamate receptor 1 [32] it was 3.4 µM; against Glutamate receptor 1 [33] it was 0.35 µM; in assay [34], 5.5 µM. For the same compound, the IC50 against Glutamate receptor 1 [35] came to 0.35 µM; at Glutamate receptor 3 [36], 0.23 µM; at Glutamate receptor 3 [37] it was 0.23 µM; in [38], 0.43 µM; in assay [39], 300 µM.

Turning to `CNC(=O)N1N=C(c2ccc(N)cc2)c2cc3c(cc2CC1C)OCO3` (configuration not stated) [GYKI-53655], the half-maximal effective concentration (EC50) on Glutamate receptor 1 [40] came out at 28 µM; on Glutamate receptor 2 [41] it was 100 µM.
